{
  "source": "paper PMC4089508",
  "about": "(Bioorganic & medicinal chemistry, 2014)",
  "key": {"SK-OV-3 MDR-1/M-6-6 [1]": {"tested_on": "SK-OV-3 MDR-1/M-6-6", "settings": "other colchicine site agents; cited from earlier work"}, "4T-1": {"tested_on": "4T-1", "assay": "Breast cancer/endothelial cell IC50, 4T-1", "format": "cell-based, murine", "settings": "Mus musculus, 4T1, read-out: IC50, 4T-1"}, "HUVEC endothelial cells": {"tested_on": "HUVEC endothelial cells", "assay": "Breast cancer/endothelial cell IC50, HUVEC", "format": "cell-based", "settings": "Homo sapiens, read-out: IC50, HUVEC"}, "MDA-MB-435": {"tested_on": "MDA-MB-435", "assay": "Breast cancer/endothelial cell IC50, MDA-MB-435", "format": "cell-based", "settings": "Homo sapiens, MDA-MB-435, read-out: IC50, MDA-MB-435"}, "MDA-MB-231": {"tested_on": "MDA-MB-231", "assay": "Breast cancer/endothelial cell IC50, MDA-MB-231", "format": "cell-based", "settings": "Homo sapiens, MDA-MB-231, read-out: IC50, MDA-MB-231"}, "MCF-7": {"tested_on": "MCF-7", "assay": "Breast cancer/endothelial cell IC50, MCF-7", "format": "cell-based", "settings": "Homo sapiens, MCF7, read-out: IC50, MCF-7"}, "[2]": {"tested_on": "cellular microtubules in A-10 cells", "assay": "Loss of cellular microtubules, indirect immunofluorescence in A-10 cells", "format": "cell-based"}, "MDA-MB-435 cells": {"tested_on": "MDA-MB-435 cells", "assay": "Apoptosis detection, Western blot of cleaved PARP", "format": "cell-based, human"}, "HeLa cells": {"tested_on": "HeLa cells", "assay": "Cell cycle analysis by flow cytometry", "format": "cell-based", "settings": "40 and 50 nM 11, 75 and 100 nM 21, 18 h"}, "[3]": {"target": "purified porcine brain tubulin (Sus scrofa, UniProt P02554)", "sequence (P02554 whole entry)": "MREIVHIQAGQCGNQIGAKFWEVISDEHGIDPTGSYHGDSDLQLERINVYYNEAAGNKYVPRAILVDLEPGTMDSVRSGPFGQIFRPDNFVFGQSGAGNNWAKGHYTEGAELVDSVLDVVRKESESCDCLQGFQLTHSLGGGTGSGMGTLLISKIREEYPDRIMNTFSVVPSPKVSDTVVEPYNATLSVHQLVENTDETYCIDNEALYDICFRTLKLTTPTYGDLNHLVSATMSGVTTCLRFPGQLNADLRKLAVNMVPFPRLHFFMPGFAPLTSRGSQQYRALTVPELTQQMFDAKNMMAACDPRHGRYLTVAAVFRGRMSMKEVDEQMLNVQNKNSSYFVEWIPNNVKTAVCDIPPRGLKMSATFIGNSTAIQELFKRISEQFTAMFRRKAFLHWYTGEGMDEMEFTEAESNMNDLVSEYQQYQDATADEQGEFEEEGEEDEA", "sequence (P02550 whole entry, further chain)": "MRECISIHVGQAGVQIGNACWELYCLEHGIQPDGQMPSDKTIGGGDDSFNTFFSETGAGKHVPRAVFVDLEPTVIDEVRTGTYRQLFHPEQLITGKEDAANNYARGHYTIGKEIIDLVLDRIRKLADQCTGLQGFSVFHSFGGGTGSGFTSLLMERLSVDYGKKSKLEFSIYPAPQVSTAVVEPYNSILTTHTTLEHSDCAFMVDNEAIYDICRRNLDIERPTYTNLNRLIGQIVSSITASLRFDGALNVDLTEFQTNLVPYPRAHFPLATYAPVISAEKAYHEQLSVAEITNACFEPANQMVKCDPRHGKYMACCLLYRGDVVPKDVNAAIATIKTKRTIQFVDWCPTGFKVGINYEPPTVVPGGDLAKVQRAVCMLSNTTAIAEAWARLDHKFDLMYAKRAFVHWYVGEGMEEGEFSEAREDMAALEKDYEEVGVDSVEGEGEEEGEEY", "assay": "In vitro tubulin polymerization", "settings": "10 μM compound"}, "SK-OV-3 MDR-1/M-6-6 [4]": {"tested_on": "SK-OV-3 MDR-1/M-6-6", "assay": "cells", "settings": "Homo sapiens, SKOV3-MDR1-M6/6, read-out: Antiproliferative activity IC50, SK-OV-3 MDR-1/M-6-6"}, "[5]": {"tested_on": "MDA-MB-435 flank xenograft", "assay": "MDA-MB-435 flank xenograft model", "format": "in vivo, NCr athymic nu/nu mice", "settings": "vs carrier treated mice"}, "4T1 orthotopic allograft": {"tested_on": "4T1 orthotopic allograft", "assay": "4T1 triple negative breast orthotopic allograft model", "settings": "4T1 orthotopic model"}},
  "data": [
    {"smiles": "COc1cc2c(cc1O)CC[C@@H]1[C@@H]2CC[C@]2(C)[C@@H](O)CC[C@@H]12", "note": "[2-methoxyestradiol]", "values": [
      {"measurement": "Rr (relative resistance), Pgp-expressing SK-OV-3 pair", "setting": "SK-OV-3 MDR-1/M-6-6 [1]", "result": "1.5–2.6"}
    ]},
    {"smiles": "COc1ccc(/C=C\\c2cc(OC)c(OC)c(OC)c2)cc1O", "note": "[CA-4, combretastatin A-4]", "values": [
      {"measurement": "IC50", "setting": "4T-1", "result": "69.6 ± 8", "unit": "nM"},
      {"measurement": "IC50", "setting": "HUVEC endothelial cells", "result": "17.7 ± 3.6", "unit": "nM"},
      {"measurement": "IC50", "setting": "MDA-MB-435", "result": 52.2, "unit": "nM"},
      {"measurement": "IC50", "setting": "MDA-MB-231", "result": "228 ± 2.9", "unit": "nM"},
      {"measurement": "IC50", "setting": "MCF-7", "result": "24.9 ± 1.4", "unit": "nM"}
    ]},
    {"smiles": "COc1ccc(Nc2nc(C)nc3oc(C)cc23)cc1", "note": "[Compound 10, N-(4-methoxyphenyl)-2,6-dimethylfuro[2,3-d]pyrimidin-4-amine]", "values": [
      {"measurement": "effect on cellular microtubules", "setting": "[2]", "result": "inactive"}
    ]},
    {"smiles": "COc1ccc(N(C)c2nc(C)nc3oc(C)cc23)cc1", "note": "[Compound 11, N-(4-methoxyphenyl)-N,2,6-trimethylfuro[2,3-d]pyrimidin-4-amine]", "values": [
      {"measurement": "cleaved PARP level", "setting": "MDA-MB-435 cells; 75 nM 11, 18 h", "result": "slight increase in cleaved PARP"},
      {"measurement": "cleaved PARP level", "setting": "MDA-MB-435 cells; 36 h, 75 nM 11, 120 nM 21", "result": "much higher levels of cleaved PARP"},
      {"measurement": "effect on cell cycle distribution (G2/M)", "setting": "HeLa cells", "result": "initiated mitotic accumulation"},
      {"measurement": "inhibition of polymerization of purified tubulin", "setting": "[3]", "result": "almost completely inhibited the polymerization of tubulin"}
    ]},
    {"smiles": "CCCCN(c1ccc(OC)cc1)c1nc(C)nc2oc(C)cc12", "note": "[Compound 14, N-butyl-N-(4-methoxyphenyl)-2,6-dimethylfuro[2,3-d]pyrimidin-4-amine]", "values": [
      {"measurement": "IC50", "setting": "SK-OV-3 MDR-1/M-6-6 [4]", "result": "> 10000", "unit": "nM"}
    ]},
    {"smiles": "COc1ccc(N(C)c2nc(C)nc3oc(C)cc23)cc1.Cl", "note": "[Compound 21, N-(4-methoxyphenyl)-N,2,6-trimethylfuro[2,3-d]pyrimidin-4-amine hydrochloride]", "values": [
      {"measurement": "effect on cell cycle distribution (G2/M)", "setting": "HeLa cells", "result": "initiated dose-dependent mitotic accumulation"},
      {"measurement": "tumor vascular density (CD31/PECAM-1 staining)", "setting": "[5]", "result": "decreased tumor vascular density"},
      {"measurement": "animal weight loss", "setting": "4T1 orthotopic allograft", "result": "less weight loss than docetaxel"},
      {"measurement": "primary tumor growth", "setting": "4T1 orthotopic allograft; 21 twice weekly at MTD", "result": "as active as docetaxel at reducing primary tumor growth"},
      {"measurement": "lung metastases", "setting": "4T1 orthotopic allograft; compared to docetaxel", "result": "reduced the size (Figure 9D; metastases at arrows) but not the number"},
      {"measurement": "effect on cellular microtubules", "setting": "[2]", "result": "dose-dependent loss of cellular microtubules"},
      {"measurement": "EC50", "setting": "[2]; read-out: EC50 for microtubule depolymerization, 18 h, 50% loss of cellular microtubules", "result": 570, "unit": "nM"},
      {"measurement": "inhibition of polymerization of purified tubulin", "setting": "[3]", "result": "almost completely inhibited the polymerization of tubulin"}
    ]}
  ]
}
